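Test compounds were applied to cells in 96-well plates for 48 hours at 5 doses. GI50: concentration for 50% inhibition of growth.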 Active and inactive are the calls of the source. Rule as the data show it: active = GI50 up to about 1.1 µM and inactive = higher.
Columns and labels:
Assay in all cases: inhibition of tumour cell growth, NCI panel, 48 h
[1] = tested on: A498
[2] = tested on: A549
[3] = tested on: HT-29
[4] = tested on: Hs-578T
[5] = tested on: IGROV-1
[6] = tested on: K562
[7] = tested on: MDA-MB-231
[8] = tested on: MDA-N
[9] = tested on: NCI-H226
[10] = tested on: NCI-H23
[11] = tested on: NCI-H460
[12] = tested on: NCI/ADR-RES
[13] = tested on: SF-268
[14] = tested on: SR
[15] = tested on: SW-620
[16] = tested on: T47D
[17] = tested on: UO-31
[18] = tested on: HCC 2998
[19] = tested on: MCF7

| SMILES | GI50 [1] | GI50 [2] | GI50 [3] | GI50 [4] | GI50 [5] | GI50 [6] | GI50 [7] | GI50 [8] | GI50 [9] | GI50 [10] | GI50 [11] | GI50 [12] | GI50 [13] | GI50 [14] | GI50 [15] | GI50 [16] | GI50 [17] | GI50 [18] | GI50 [19] |
| --- | --- | --- | --- | --- | --- | --- | --- | --- | --- | --- | --- | --- | --- | --- | --- | --- | --- | --- | --- |
| CSC1=NC(C(N)=O)C(N)N1C (stereo not drawn) | > 100 µM (inactive) | > 100 µM (inactive) | > 100 µM (inactive) | > 100 µM (inactive) | > 100 µM (inactive) | > 100 µM (inactive) | 38.6 µM (inactive) | > 100 µM (inactive) | > 100 µM (inactive) | > 100 µM (inactive) | > 100 µM (inactive) | > 100 µM (inactive) | > 100 µM (inactive) | > 100 µM (inactive) | > 100 µM (inactive) | > 100 µM (inactive) | > 100 µM (inactive) |  |  |
| CCOC(=O)CNc1c(OCc2ccccc2)c(=O)c1=O |  | > 100 µM (inactive) | > 100 µM (inactive) | > 100 µM (inactive) | > 100 µM (inactive) | > 100 µM (inactive) | > 100 µM (inactive) | > 100 µM (inactive) | > 100 µM (inactive) | > 100 µM (inactive) |  | > 100 µM (inactive) | > 100 µM (inactive) | > 100 µM (inactive) | > 100 µM (inactive) | > 100 µM (inactive) | > 100 µM (inactive) | > 100 µM (inactive) | > 100 µM (inactive) |
| COc1cc(/C=C2\N=C(c3ccccc3)N(c3ccc(C(=O)c4ccccc4)cc3N3C(=O)/C(=C/c4ccc(O)c(OC)c4)N=C3c3ccccc3)C2=O)ccc1O | 6.92 µM (inactive) | 11.4 µM (inactive) | 20.3 µM (inactive) | 10.1 µM (inactive) | 7.35 µM (inactive) | 5.18 µM (inactive) | 12.9 µM (inactive) | 3.75 µM (inactive) |  |  | 4.66 µM (inactive) | 6.76 µM (inactive) | 15.3 µM (inactive) | 3.85 µM (inactive) | 7.53 µM (inactive) | 5.18 µM (inactive) | 13 µM (inactive) | 2.91 µM (inactive) | 5.85 µM (inactive) |
| COc1ccc(C(C)c2cc3c(cc2O)OCO3)cc1 (stereo not drawn) | 14.8 µM (inactive) | 14.7 µM (inactive) | 12.6 µM (inactive) | 20.5 µM (inactive) | 15.8 µM (inactive) | 6 µM (inactive) | 14.2 µM (inactive) |  | 19.7 µM (inactive) | 16.2 µM (inactive) | 14.7 µM (inactive) | 10.8 µM (inactive) | 14.9 µM (inactive) | 2.74 µM (inactive) | 11.5 µM (inactive) | 24.9 µM (inactive) | 16.2 µM (inactive) | 7.01 µM (inactive) | 15.1 µM (inactive) |
| COc1cccc(/C=N/[N+](C)(C)C)c1O | > 10 µM (inactive) | > 10 µM (inactive) | > 10 µM (inactive) | > 10 µM (inactive) | > 10 µM (inactive) | > 10 µM (inactive) | > 10 µM (inactive) | > 10 µM (inactive) | > 10 µM (inactive) | 2.22 µM (inactive) | > 10 µM (inactive) | > 10 µM (inactive) | > 10 µM (inactive) |  | > 10 µM (inactive) | > 10 µM (inactive) | > 10 µM (inactive) | > 10 µM (inactive) | > 10 µM (inactive) |
| CCOP(=O)(CN1CCNCCNCC1)OCC | > 100 µM (inactive) | > 100 µM (inactive) | > 100 µM (inactive) | > 100 µM (inactive) | > 100 µM (inactive) | > 100 µM (inactive) | > 100 µM (inactive) | > 100 µM (inactive) | > 100 µM (inactive) |  | > 100 µM (inactive) | > 100 µM (inactive) |  | > 100 µM (inactive) | > 100 µM (inactive) | > 100 µM (inactive) | > 100 µM (inactive) | > 100 µM (inactive) | > 100 µM (inactive) |
| c1cc(-c2cscc2-c2ccsc2)cs1 | > 100 µM (inactive) | 43.6 µM (inactive) | > 100 µM (inactive) | 17.4 µM (inactive) | 34.5 µM (inactive) | 71.4 µM (inactive) | > 100 µM (inactive) | 40.2 µM (inactive) |  | 25.7 µM (inactive) | 43.9 µM (inactive) | 37.7 µM (inactive) | 58.2 µM (inactive) | 27.5 µM (inactive) | 57.9 µM (inactive) | 69.7 µM (inactive) | 72.9 µM (inactive) | 27.4 µM (inactive) | 30.5 µM (inactive) |
| CCCC(=O)n1[nH]c(=O)n(C(C)(C)C)c1=O |  | > 100 µM (inactive) | > 100 µM (inactive) | > 100 µM (inactive) | > 100 µM (inactive) | > 100 µM (inactive) | > 100 µM (inactive) | > 100 µM (inactive) | > 100 µM (inactive) | > 100 µM (inactive) | > 100 µM (inactive) | > 100 µM (inactive) | > 100 µM (inactive) | > 100 µM (inactive) | > 100 µM (inactive) | > 100 µM (inactive) | > 100 µM (inactive) | > 100 µM (inactive) | > 100 µM (inactive) |
| Cc1cc(S(=O)(=O)Nc2n[nH]c(-c3ccc(Cl)cn3)n2)c(S)cc1Cl | 87.3 µM (inactive) | 62.7 µM (inactive) | 39.3 µM (inactive) | 27.9 µM (inactive) | 44.4 µM (inactive) |  | > 100 µM (inactive) | 63.4 µM (inactive) | 33.4 µM (inactive) |  | 36.9 µM (inactive) | 85.5 µM (inactive) | 54.7 µM (inactive) | 47.8 µM (inactive) | 83.6 µM (inactive) | 31 µM (inactive) | 29.5 µM (inactive) | 57.5 µM (inactive) | 74.1 µM (inactive) |
| O=C(/C=C/c1c[nH]c2ccccc12)c1ccccc1O | 15.1 µM (inactive) | 10.5 µM (inactive) | 15.1 µM (inactive) | 22.6 µM (inactive) | 3.83 µM (inactive) | 5.32 µM (inactive) | 3.18 µM (inactive) | 5.5 µM (inactive) | 16.7 µM (inactive) |  | 13.2 µM (inactive) |  | 16.6 µM (inactive) |  | 18.5 µM (inactive) | 1.75 µM (inactive) | 2.82 µM (inactive) | 11 µM (inactive) | 3.1 µM (inactive) |
| COc1ccc2c(c1)c(CC(=O)O)c(C)n2C(=O)c1ccc(Cl)cc1 |  | > 100 µM (inactive) | > 100 µM (inactive) | > 100 µM (inactive) | > 100 µM (inactive) | 13.7 µM (inactive) | > 100 µM (inactive) | > 100 µM (inactive) | 98.4 µM (inactive) | 57 µM (inactive) | 39.9 µM (inactive) | > 100 µM (inactive) | > 100 µM (inactive) | 16.3 µM (inactive) | > 100 µM (inactive) | 52.6 µM (inactive) | 41.8 µM (inactive) | 35.6 µM (inactive) | 87.7 µM (inactive) |
| Cc1ccc(O)c(C2=CC(c3cccc(Cl)c3)SC(=N)N2)c1 (stereo not drawn) |  | 23.3 µM (inactive) | 20.8 µM (inactive) | 19.9 µM (inactive) | 19.1 µM (inactive) | 19.4 µM (inactive) |  | 18.8 µM (inactive) | 16.6 µM (inactive) | 26.6 µM (inactive) | 23.9 µM (inactive) | 29.2 µM (inactive) | 32.2 µM (inactive) | 17.3 µM (inactive) | 24.4 µM (inactive) | 23.8 µM (inactive) | 27.4 µM (inactive) | 16.1 µM (inactive) | 29.9 µM (inactive) |
| N#Cc1c(N)oc(-c2ccc([N+](=O)[O-])cc2)c1C#N | 22.1 µM (inactive) | 23 µM (inactive) | 34.4 µM (inactive) | 25.6 µM (inactive) | 18.5 µM (inactive) |  | 22 µM (inactive) | 30.3 µM (inactive) | 17.9 µM (inactive) | 23.8 µM (inactive) |  | 18.7 µM (inactive) | 19.5 µM (inactive) | 54.2 µM (inactive) | 58.3 µM (inactive) | 27.2 µM (inactive) | 19.1 µM (inactive) | 32.7 µM (inactive) | 35 µM (inactive) |
| Cc1cc(C)c2c(=N)c3ccccc3n(CCCCCCO)c2n1 | 10.5 µM (inactive) | 3.3 µM (inactive) | 1.03 µM (active) | 3.03 µM (inactive) | 2.09 µM (inactive) |  | 3.68 µM (inactive) | 2.52 µM (inactive) | 3.87 µM (inactive) | 2.15 µM (inactive) | 1.69 µM (inactive) | 2.31 µM (inactive) | 3.62 µM (inactive) |  | 4.17 µM (inactive) | 2.94 µM (inactive) | 1.63 µM (inactive) | 2.81 µM (inactive) | 2.11 µM (inactive) |
| CCOP(=O)(C=C=C1CCC2[C@@H]3CCc4cc(OC)ccc4C3CC[C@]12C)OCC (stereo partly drawn) | 12 µM (inactive) | 4.07 µM (inactive) | 3.93 µM (inactive) | 20.5 µM (inactive) | 11.4 µM (inactive) | 0.348 µM (active) |  | 12.3 µM (inactive) | 5.43 µM (inactive) | 5.73 µM (inactive) | 7.82 µM (inactive) | 6.47 µM (inactive) | 11.9 µM (inactive) | 1 µM (active) | 12 µM (inactive) | 6.22 µM (inactive) | < 0.01 µM (active) | 12.1 µM (inactive) | 6.14 µM (inactive) |
| O=C1OC(c2ccccc2)N/C1=C\c1ccc2c(c1)OCO2 (stereo not drawn) |  | > 100 µM (inactive) | > 100 µM (inactive) | 72.9 µM (inactive) | 48.6 µM (inactive) | > 100 µM (inactive) | > 100 µM (inactive) | > 75.9 µM (inactive) | 34 µM (inactive) | > 100 µM (inactive) | > 100 µM (inactive) | > 52.2 µM (inactive) | > 100 µM (inactive) | 28.1 µM (inactive) | > 88.1 µM (inactive) | > 100 µM (inactive) | > 100 µM (inactive) | 54.2 µM (inactive) | > 100 µM (inactive) |
